Results reported in patent US20240316012A1, “METHODS FOR TREATING LYMPHOMA” (Northwestern University, priority 2023, published 2024).

Test system: H3K27 acetylation
Experiment: Flow cytometry for H3K27ac after in vitro culture with inhibitors
Format: cell-based, mouse
Excerpt: Data are normalized to viable cell number and z-scores per metabolite. […] P=two-sided Student's t-test. The data are presented as the mean±SEM and individual data points for each animal. Cross indicates death of the animal. […] P=two-sided Student's t-test. Shown are the mean±SD and individual data points. […] Data are presented as mean±SD and individual data points. […] P=paired two-sided Student's t-test. Data are presented as the mean±SD. […] Data was normalized as in (a). P=two-sided Student's t-test. The data are presented as the mean±SEM. […] Experiment as in (h) (n=3 mice genotype). Data was normalized as in (a). P=two-sided Student's t-test. Data are presented as the mean±SD. FIGS. 3-D, Representative data from two independent experiments with n=3 biological replicates per group. FIG. 3E, Representative data from two independent experiments with two biological replicates per group. FIG. 3F, Representative data from two independent experiments. FIG. 3G, Representative data from two independent experiments with three biological replicates per group. FIG. 3H, Representative data from one experiment with four biological replicates per group. FIG. 3I, Representative data from one experiment with three biological replicates per group FIGS. 4A-4H show ACLY is a critical effector molecule downstream of PD-1. […] ITK-SYK^+ cells were FACS-sorted from ITK-[…]2 mice on d5 after TAM and 12 h anti-PD-L1 or isotype control antibody treatment (i.p., 200 μg). P=paired two-sided Student's t-test. Data are presented as the mean±SD. […] Spleen-derived single-cell suspensions were FACS-sorted from ITK-[…]2 mice on d5 after TAM and cultured in vitro overnight with anti-PD-L1 or isotype control antibodies and the PI3K inhibitors (“iPI3K”) Wortmannin (20 nM), LY294002 (20 μM), or DMSO. […] Spleen-derived lymphocytes, FACS-sorted from ITK-[…]2 and ITK-[…]2; Pdcd1^-/- mice on d5 after TAM were incubated for three days in vitro. P=two-sided Student's t-test. Data are presented as the mean±SD. […] Protein lysates were generated after 48 h in vitro culture. RNP, ribonucleoprotein. […] P=two-sided Logrank-test. […] ITK-SYK^+ cells were FACS-sorted from ITK-[…]2 (“Pdcd1^+/+”) and ITK-[…]2; Pdcd1^-/- (“Pdcd1^-/-”) mice on d5 after TAM, fixed, and processed for anti-H3K27ac ChIP-seq analysis. ChIP-seq, chromatin immunoprecipitation sequencing; TSS, transcription start site. FIG. 4B, Representative data from three independent experiments with three biological replicates per group. FIG. 4C, Representative data from two independent experiments with two biological replicates. FIGS. 4D and 4E, Representative data from 3 independent experiments. FIGS. 4F and 4G, Data from one experiment with n=5 mice per group. […] (8752, CST), and assessed by flow cytometry. […]

SMILES	H3K27 acetylation in Pdcd1 deficient lymphoma cells (2-DG 1 mM, 4 h in vitro vs DMSO, p=0.0003)	histone acetylation (H3K27ac) in ITK-SYK+ cells (BMS-303141 15 μM vs DMSO vehicle control, 3 hours, 4 h)	dependency of H3K27ac on ACLY function in cells with pharmacologically inactivated PD-1 pathway (anti-PD-L1 vs isotype control pretreated mice, BMS-303141 15 μM, p=0.0131)
O=CC[C@@H](O)[C@H](O)[C@H](O)CO [2-DG, 2-deoxy-D-glucose]	reduction in H3K27 acetylation		
COc1ccc(-c2ccccc2)cc1NS(=O)(=O)c1cc(Cl)cc(Cl)c1O [BMS-303141]		reduced histone acetylation	significantly higher
